Experimental data taken from patent publication US10517889B2, “Modulators of SMAD7 expression” (Ionis Pharmaceuticals, Inc., priority 2017, dated 2019).
Strand notation (5' to 3'): a small letter for the sugar, then the base; units joined by * are phosphorothioate-linked, units joined directly phosphodiester-linked; [ ] holds rarer units or linkages, { } end groups; capitals alone tell only the bases. k = constrained ethyl (cEt); [5mC] = 5-methylcytosine; d = 2'-deoxy (DNA)

Test system: human SMAD7 mRNA
Experiment: Antisense inhibition of human SMAD7 mRNA expression in Hep3B cells by 3-10-3 cEt gapmers, 10,000 nM, electroporation (Example 2)
Type: cell-based
Conditions: Hep3B cells, 10,000 nM antisense oligonucleotide, electroporation, approximately 24 hours, RT-PCR primer probe set RTS5062, relative to untreated control cells
How it was run: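 Hep3B cells (20,000/well) were electroporated with 10,000 nM 3-10-3 cEt gapmer (16-mer, phosphorothioate, 5-methylcytosines) and harvested after about 24 h. SMAD7 mRNA quantified by RT-qPCR with primer probe set RTS5062, normalized to total RNA by RiboGreen; percent inhibition relative to untreated cells.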

Point of comparison: “798825 (k[5mC]*kT*kG*dG*dA*d[5mC]*dA*d[5mC]*dA*dG*dT*dA*dG*kA*kG*k[5mC]; antisense) [compound 798825]”, “% Inhibition” value 24%. Against it:
- 800014 (kT*kA*kA*dA*dG*d[5mC]*dA*dT*dA*dA*dA*dA*dT*k[5mC]*k[5mC]*kT; antisense) [compound 800014] — lower, 21%
- 799976 (kT*k[5mC]*kA*dA*dA*dG*dG*dT*dT*dA*dA*d[5mC]*dA*kG*k[5mC]*kA; antisense) [compound 799976] — higher, 34%
- 800030 (kA*kA*kA*d[5mC]*dA*d[5mC]*dA*dG*dT*dT*d[5mC]*d[5mC]*d[5mC]*kT*kG*kA; antisense) [compound 800030] — lower, 0%

Same assay, conditions: Hep3B cells, electroporation with 10,000 nM antisense oligonucleotide, approximately 24 hours, RTS5062, percent inhibition of SMAD7 mRNA relative to untreated control cells

Point of comparison: “799826 (antisense kG*kA*kT*d[5mC]*dA*dT*dT*d[5mC]*d[5mC]*d[5mC]*dA*d[5mC]*dA*k[5mC]*k[5mC]*k[5mC]) [compound 799826]”, “% Inhibition” value 33%. Against it:
- 799549 (kG*k[5mC]*kT*d[5mC]*d[5mC]*dT*dA*d[5mC]*dT*dG*dT*dT*dG*kG*k[5mC]*kA; antisense) [compound 799549] — higher, 53%
- 799651 (antisense kA*kG*kG*dA*d[5mC]*dA*dG*d[5mC]*dA*dG*dA*d[5mC]*dA*kG*kG*k[5mC]) [compound 799651] — higher, 55%
- 799749 (antisense kT*kG*k[5mC]*dT*dT*dG*dG*d[5mC]*d[5mC]*dT*dT*dA*d[5mC]*k[5mC]*kA*kT) [compound 799749] — lower, 17%
- 799273 (antisense kA*kT*k[5mC]*dA*dT*dT*dA*d[5mC]*dT*d[5mC]*dG*dA*dG*kT*k[5mC]*kA) [compound 799273] — higher, 41%
- 799648 (antisense kA*kT*kG*dA*dA*dA*dG*d[5mC]*d[5mC]*d[5mC]*d[5mC]*d[5mC]*dA*kG*kA*k[5mC]) [compound 799648] — lower, 9%

Same assay, conditions: Hep3B cells, electroporation with 10,000 nM antisense oligonucleotide, approximately 24 hours, SMAD7 mRNA by RT-PCR (RTS5062), relative to untreated control cells

Point of comparison: “798702 (antisense k[5mC]*k[5mC]*k[5mC]*d[5mC]*dT*dT*d[5mC]*dT*d[5mC]*d[5mC]*d[5mC]*d[5mC]*dG*k[5mC]*kA*kG) [compound 798702]”, “% Inhibition” value 45%. Against it:
- 799394 (antisense kA*k[5mC]*kA*dG*dA*dG*dA*dG*d[5mC]*dT*dG*dG*dG*kT*kA*kT) [compound 799394] — lower, 33%
- 799922 (antisense kA*k[5mC]*kA*d[5mC]*dT*dA*dA*dT*dT*dA*dG*dT*dG*kA*k[5mC]*kT) [compound 799922] — lower, 15%
- 800040 (k[5mC]*kG*k[5mC]*d[5mC]*dA*dG*d[5mC]*dA*dA*dT*dG*dT*dG*k[5mC]*kT*kG; antisense) [compound 800040] — lower, 15%
- 799864 (k[5mC]*kT*k[5mC]*dA*dA*dG*d[5mC]*d[5mC]*d[5mC]*dA*d[5mC]*d[5mC]*d[5mC]*k[5mC]*kG*kG; antisense) [compound 799864] — lower, 42%
- 790493 (kG*kT*kT*dG*dA*dT*d[5mC]*dT*dT*d[5mC]*d[5mC]*d[5mC]*dG*kT*kA*kA; antisense) [compound 790493] — lower, 0%
- 799367 (antisense kA*kG*kT*d[5mC]*dT*d[5mC]*d[5mC]*dG*dA*dG*dT*dT*dA*kT*k[5mC]*k[5mC]) [compound 799367] — lower, 41%
- 799986 (kA*kA*kA*d[5mC]*dA*dT*d[5mC]*dA*d[5mC]*d[5mC]*dA*d[5mC]*dG*k[5mC]*k[5mC]*kT; antisense) [compound 799986] — lower, 44%
- 799901 (antisense kA*kG*kT*d[5mC]*dA*dA*dG*dT*d[5mC]*dT*d[5mC]*dT*dT*kA*k[5mC]*k[5mC]) [compound 799901] — lower, 31%
- 799447 (antisense kA*kT*kG*dA*dA*dT*dG*dA*d[5mC]*d[5mC]*dT*dA*dA*kT*k[5mC]*kT) [compound 799447] — lower, 30%
- 798699 (antisense k[5mC]*kG*k[5mC]*dA*dG*d[5mC]*dT*d[5mC]*dG*d[5mC]*d[5mC]*dT*d[5mC]*k[5mC]*kT*k[5mC]) [compound 798699] — higher, 51%
- 799510 (antisense kG*kA*kG*dA*dA*dA*d[5mC]*dA*dG*dT*d[5mC]*dT*d[5mC]*k[5mC]*kA*k[5mC]) [compound 799510] — higher, 57%

Same assay, conditions: Hep3B cells, electroporation with 10,000 nM antisense oligonucleotide, approximately 24 hours, primer probe set RTS5062, relative to untreated control cells

Point of comparison: “799445 (antisense k[5mC]*k[5mC]*kT*dA*dA*dT*d[5mC]*dT*d[5mC]*dT*dT*dT*d[5mC]*kA*kT*k[5mC]) [compound 799445]”, “% inhibition of SMAD7 mRNA expression” value 28%. Against it:
- 799185 (antisense kT*kT*kA*dA*dA*d[5mC]*d[5mC]*dT*dT*dT*dG*dT*dA*kG*kT*kT) [compound 799185] — lower, 0%
- 799004 (antisense kG*k[5mC]*kA*d[5mC]*dA*d[5mC]*dA*d[5mC]*dA*dG*d[5mC]*d[5mC]*dG*k[5mC]*kA*k[5mC]) [compound 799004] — lower, 0%
- 798748 (antisense k[5mC]*kT*k[5mC]*d[5mC]*dA*d[5mC]*dG*dG*d[5mC]*d[5mC]*dT*dG*dG*kA*kG*k[5mC]) [compound 798748] — higher, 58%
- 798657 (k[5mC]*k[5mC]*kG*d[5mC]*dG*d[5mC]*dG*dG*d[5mC]*d[5mC]*d[5mC]*dG*d[5mC]*kG*k[5mC]*k[5mC]; antisense) [compound 798657] — lower, 0%
- 798744 (antisense kA*kG*k[5mC]*dT*dG*d[5mC]*d[5mC]*dG*d[5mC]*dT*d[5mC]*d[5mC]*dT*kT*k[5mC]*kA) [compound 798744] — lower, 12%
- 798710 (antisense k[5mC]*k[5mC]*k[5mC]*d[5mC]*dA*dT*dG*d[5mC]*dG*d[5mC]*dT*d[5mC]*dG*kG*k[5mC]*kT) [compound 798710] — higher, 54%
- 799188 (antisense kT*kG*k[5mC]*dT*dT*d[5mC]*dT*d[5mC]*dT*dT*dG*dT*dT*k[5mC]*kA*kT) [compound 799188] — higher, 43%
- 799457 (antisense k[5mC]*kA*k[5mC]*dG*dA*dT*dA*dG*dT*d[5mC]*dT*d[5mC]*dA*kG*k[5mC]*kA) [compound 799457] — higher, 62%
- 799483 (antisense k[5mC]*kA*kA*dA*dG*dG*dA*dA*dA*dA*dG*d[5mC]*d[5mC]*kG*kG*kG) [compound 799483] — higher, 35%
- 772533 (antisense kT*kG*kA*dA*dG*dA*dA*dG*dT*d[5mC]*dG*dG*dG*k[5mC]*kG*k[5mC]) [compound 772533] — higher, 31%

Point of comparison: “799095 (antisense kA*k[5mC]*k[5mC]*dT*dG*dA*dT*dG*dT*d[5mC]*dA*d[5mC]*d[5mC]*kA*kG*kG) [compound 799095]”, “% Inhibition” value 0%. Against it:
- 799077 (antisense k[5mC]*kA*kG*dG*dA*dG*d[5mC]*dA*dG*dA*dT*dG*dG*k[5mC]*k[5mC]*kA) [compound 799077] — higher, 28%
- 799061 (antisense kT*kT*k[5mC]*dG*dG*d[5mC]*d[5mC]*dA*d[5mC]*dT*dA*dG*d[5mC]*kA*kG*kG) [compound 799061] — higher, 45%

Same assay, conditions: Hep3B cells, electroporation, 10,000 nM antisense oligonucleotide, approximately 24 hours, RTS5062, relative to untreated control cells

Point of comparison: “799502 (antisense k[5mC]*kA*kA*dA*dT*dA*dG*dG*dA*dA*dA*dG*d[5mC]*k[5mC]*kA*kA) [compound 799502]”, “% inhibition of SMAD7 mRNA expression” value 31%. Against it:
- 799536 (kA*k[5mC]*k[5mC]*dG*dA*dT*dG*d[5mC]*dA*dT*d[5mC]*d[5mC]*dA*kA*k[5mC]*kT; antisense) [compound 799536] — higher, 50%

Same assay, conditions: SMAD7 mRNA, Hep3B cells, 10,000 nM antisense oligonucleotide, electroporation, approximately 24 hours, primer probe set RTS5062, relative to untreated control cells

Point of comparison: “790508 (k[5mC]*kA*k[5mC]*d[5mC]*dA*d[5mC]*dG*d[5mC]*dA*d[5mC]*d[5mC]*dA*dG*kT*kG*kT; antisense) [compound 790508]”, “% Inhibition” value 0%. Against it:
- 772735 (kA*kA*k[5mC]*dT*dG*dT*dT*dT*dG*dT*d[5mC]*dT*dT*kA*kG*k[5mC]; antisense) [compound 772735] — higher, 52%
- 829716 (antisense kG*kT*k[5mC]*dT*d[5mC]*d[5mC]*d[5mC]*dG*dG*dA*dG*dG*d[5mC]*k[5mC]*kG*kG) [compound 829716] — higher, 10%
- 829764 (antisense k[5mC]*k[5mC]*kG*d[5mC]*dT*d[5mC]*d[5mC]*dT*dT*d[5mC]*dA*dG*dT*kT*kT*k[5mC]) [compound 829764] — higher, 44%

Same assay, conditions: SMAD7 mRNA, Hep3B cells, electroporation with 10,000 nM antisense oligonucleotide, approximately 24 hours, primer probe set RTS5062, relative to untreated control cells

Point of comparison: “829987 (k[5mC]*k[5mC]*kG*d[5mC]*dG*dA*dG*dG*d[5mC]*dG*dG*dT*dG*kA*kT*kT; antisense) [compound 829987]”, “% Inhibition” value 6%. Against it:
- 830001 (kG*k[5mC]*k[5mC]*d[5mC]*dA*dA*d[5mC]*dT*dG*dT*dT*dT*dG*kT*k[5mC]*kT; antisense) [compound 830001] — higher, 24%
- 829849 (antisense kT*kG*kT*dT*dG*dT*d[5mC]*d[5mC]*dG*dA*dA*dT*dT*kG*kA*kG) [compound 829849] — higher, 49%
- 829950 (kT*k[5mC]*k[5mC]*dG*dG*dG*d[5mC]*dA*dG*d[5mC]*d[5mC]*dA*dG*kT*kT*kA; antisense) [compound 829950] — higher, 43%
- 829936 (k[5mC]*kA*kG*d[5mC]*dT*dA*dG*dG*dT*dG*dA*dT*dA*kA*k[5mC]*kA; antisense) [compound 829936] — higher, 14%
- 829885 (antisense k[5mC]*k[5mC]*kG*d[5mC]*dT*dG*d[5mC]*dA*dG*dG*d[5mC]*dT*dG*kT*kA*k[5mC]) [compound 829885] — higher, 31%
